Holding throughout (format): cell-based
For one test, the system named is HAS-2. In words: HAS-2 mRNA expression in human keratinocytes (real time PCR). Conditions: Keratinocyte, 24 h, untreated negative control = 100%, GAPDH reference, n = 4, read-out: HAS-2 expression amount. For orientation: Quantitative PCR measures a nucleic acid by following its amplification.
In a further test the test system is HAS-3. Description: HAS-3 mRNA expression in human keratinocytes (real time PCR). The following applies: Keratinocyte, 24 h, untreated negative control = 100%, GAPDH reference, n = 4, read-out: HAS-3 expression amount.
For test [1], the system named is mouse melanoma cells [쥐의 멜라노마 세포(B-16 mouse melanoma cell)]. Description: Inhibition of melanin production in B-16 mouse melanoma cells. The following applies: relative to control; for inhibition rate (melanin production): 3 days, absorbance at 400 nm per 10^6 cells, n = 3.
For test [2], the system named is collagen type I [콜라겐 타입 I], human fibroblast [인간 유래 섬유아세포]. Description: Collagen type I synthesis in human fibroblasts (PICP EIA kit). Conditions: 48 h, n = 4.
Test [3] has as its system sulfated glycosaminoglycan [황산화 글리코사미노글리칸], human fibroblast [인간 유래 섬유아세포]. Description: Sulfated glycosaminoglycan synthesis in human fibroblasts (Blyscan kit). Conditions: 24 h; for sulfated glycosaminoglycan production amount: n = 4.

SMILES strings stand for the structures.

For `N[C@H]1C(O)O[C@H](CO)[C@@H](O)[C@@H]1O` (stereo partly shown) [글루코사민, reference compound], the activity at 100 ppm was determined as 114% with HAS-2 (100 ppm) and 125% in the test with HAS-3 (100 ppm).

On to `OC[C@H]1O[C@@H](Oc2ccc(O)cc2)[C@H](O)[C@@H](O)[C@@H]1O` [알부틴, Arbutin, reference compound], for which, in test [1] (200 ㎍/ml), the “inhibition rate (melanin production)” value is 31.3%.

`COc1cc2ccc(=O)oc2c(OC)c1O` [이소프락시딘, Isofraxidin]: the activity at 1 ppm with HAS-2 (1 ppm) is 122%; in the test with HAS-3 (1 ppm), 126%. For the same compound, the activity at 10 ppm with HAS-2 (10 ppm) was 135%; in the test with HAS-3 (10 ppm), 151%. In addition, the results for the “inhibition rate (melanin production)” value in test [1] (1 ㎍/ml) and in test [1] (10 ㎍/ml) were 29.1% and 34.9%, respectively. The “inhibition rate of melanin production (summary statement)” value in test [1] (concentration not given) is on record as at least 25%. The values for the collagen production amount in test [2] (10 ㎍/ml) and in test [2] (20 ㎍/ml) were 304 ng/mL and 370 ng/mL, respectively. For the same compound, the “sulfated glycosaminoglycan production amount” value in test [3] (1 ㎍/ml) came out at 0.50 ng/mL; in test [3] (10 ㎍/ml) it was 1.64 ng/mL; in test [3] (20 ㎍/ml), 2.98 ng/mL. In addition, the activation at 20 µg/mL in test [3] (Homo sapiens, Fibroblast, 20 ㎍/ml, relative to untreated control (0.46 ng/ml), n = 4, read-out: sulfated glycosaminoglycan production increase rate) came to 548%.

(Values after patent KR20170075293A, “피부 개선용 조성물” (주식회사 엘지생활건강, priority 2015, dated 2017).)
